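The concentration for 50% growth inhibition is given as GI50. TGI denotes the concentration required for complete inhibition of growth.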
Legend:
Experiment in all cases: DTP human tumour cell line panel, 384-well format
MDA-MB-231 breast = test system: MDA-MB-231 breast
HOP-92 NSCLC = test system: HOP-92 NSCLC
NCI/ADR-RES ovarian = test system: NCI/ADR-RES ovarian
M14 melanoma = test system: M14 melanoma
PC-3 prostate = test system: PC-3 prostate
MDA-MB-435 melanoma = test system: MDA-MB-435 melanoma
MCF7 breast = test system: MCF7 breast
HOP-62 NSCLC = test system: HOP-62 NSCLC
A549 NSCLC = test system: A549 NSCLC
NCI-H322M lung = test system: NCI-H322M lung
IGROV1 ovarian = test system: IGROV1 ovarian
SNB-19 CNS = test system: SNB-19 CNS
ACHN renal = test system: ACHN renal
UACC-257 melanoma = test system: UACC-257 melanoma
OVCAR-8 ovarian = test system: OVCAR-8 ovarian
T-47D breast = test system: T-47D breast
HS 578T breast = test system: HS 578T breast
KM12 colon = test system: KM12 colon
EKVX NSCLC = test system: EKVX NSCLC
SK-MEL-28 melanoma = test system: SK-MEL-28 melanoma
OVCAR-5 ovarian = test system: OVCAR-5 ovarian
SK-OV-3 ovarian = test system: SK-OV-3 ovarian
UO-31 renal = test system: UO-31 renal
MDA-MB-468 breast = test system: MDA-MB-468 breast
SN12C renal = test system: SN12C renal
TK-10 renal = test system: TK-10 renal
MALME-3M melanoma = test system: MALME-3M melanoma
CCRF-CEM leukemia = test system: CCRF-CEM leukemia
HL-60(TB) leukemia = test system: HL-60(TB) leukemia
NCI-H226 lung = test system: NCI-H226 lung
A498 renal = test system: A498 renal
HCC-2998 colon = test system: HCC-2998 colon
HT29 colon = test system: HT29 colon
U251 glioblastoma = test system: U251 glioblastoma
SNB-75 CNS = test system: SNB-75 CNS
COLO 205 colon = test system: COLO 205 colon
SF-295 CNS = test system: SF-295 CNS
MOLT-4 leukemia = test system: MOLT-4 leukemia
NCI-H460 NSCLC = test system: NCI-H460 NSCLC
NCI-H522 lung = test system: NCI-H522 lung
NCI-H23 lung = test system: NCI-H23 lung
CAKI-1 renal = test system: CAKI-1 renal
786-0 renal = test system: 786-0 renal
SF-268 CNS = test system: SF-268 CNS
DU-145 prostate = test system: DU-145 prostate
LOX IMVI melanoma = test system: LOX IMVI melanoma
K-562 leukemia = test system: K-562 leukemia
RPMI-8226 leukemia = test system: RPMI-8226 leukemia
OVCAR-4 ovarian = test system: OVCAR-4 ovarian
SW-620 colon = test system: SW-620 colon
BT-549 breast = test system: BT-549 breast
SF-539 CNS = test system: SF-539 CNS
RXF 393 renal = test system: RXF 393 renal
HCT-116 colon = test system: HCT-116 colon
OVCAR-3 ovarian = test system: OVCAR-3 ovarian
SK-MEL-5 melanoma = test system: SK-MEL-5 melanoma
UACC-62 melanoma = test system: UACC-62 melanoma
SR leukemia = test system: SR leukemia

CCOC(=O)C1=CCCC[C@H]1S(=O)(=O)Nc1ccc(F)cc1Cl
GI50 (MDA-MB-231 breast): 27.3 µM
TGI (MDA-MB-231 breast): > 100 µM
GI50 (HOP-92 NSCLC): 16.9 µM
TGI (HOP-92 NSCLC): 39.8 µM
GI50 (NCI/ADR-RES ovarian): 18.6 µM
TGI (NCI/ADR-RES ovarian): 39.4 µM
GI50 (M14 melanoma): 21.9 µM
TGI (M14 melanoma): 68 µM
GI50 (PC-3 prostate): 18.8 µM
TGI (PC-3 prostate): 41 µM
GI50 (MDA-MB-435 melanoma): 31 µM
TGI (MDA-MB-435 melanoma): > 100 µM
GI50 (MCF7 breast): 14.1 µM
TGI (MCF7 breast): 33 µM
GI50 (HOP-62 NSCLC): 19.4 µM
TGI (HOP-62 NSCLC): 73.7 µM
GI50 (A549 NSCLC): 32.1 µM
TGI (A549 NSCLC): > 100 µM
GI50 (NCI-H322M lung): 20.1 µM
TGI (NCI-H322M lung): 51.1 µM
GI50 (IGROV1 ovarian): 29.8 µM
TGI (IGROV1 ovarian): > 100 µM
GI50 (SNB-19 CNS): 23.6 µM
TGI (SNB-19 CNS): 79.9 µM
GI50 (ACHN renal): 27.9 µM
TGI (ACHN renal): 85.2 µM
GI50 (UACC-257 melanoma): 17.5 µM
TGI (UACC-257 melanoma): 84.9 µM
GI50 (OVCAR-8 ovarian): 15.6 µM
TGI (OVCAR-8 ovarian): 38.6 µM
GI50 (T-47D breast): 11.4 µM
TGI (T-47D breast): 24.1 µM
GI50 (HS 578T breast): 16.1 µM
TGI (HS 578T breast): 42.2 µM
GI50 (KM12 colon): 21 µM
TGI (KM12 colon): 48.4 µM
GI50 (EKVX NSCLC): 19.4 µM
TGI (EKVX NSCLC): 44.3 µM
GI50 (SK-MEL-28 melanoma): > 100 µM
TGI (SK-MEL-28 melanoma): > 100 µM
GI50 (OVCAR-5 ovarian): 26.7 µM
TGI (OVCAR-5 ovarian): 70.6 µM
GI50 (SK-OV-3 ovarian): 22.3 µM
TGI (SK-OV-3 ovarian): 65.5 µM
GI50 (UO-31 renal): 19 µM
TGI (UO-31 renal): 47.2 µM
GI50 (MDA-MB-468 breast): 12.4 µM
TGI (MDA-MB-468 breast): 27.2 µM
GI50 (SN12C renal): 18.4 µM
TGI (SN12C renal): 48.4 µM
GI50 (TK-10 renal): 22 µM
TGI (TK-10 renal): 60.5 µM
GI50 (MALME-3M melanoma): 21.7 µM
TGI (MALME-3M melanoma): 57.6 µM
GI50 (CCRF-CEM leukemia): 14.8 µM
TGI (CCRF-CEM leukemia): 28.9 µM
GI50 (HL-60(TB) leukemia): 10.6 µM
TGI (HL-60(TB) leukemia): 22.7 µM
GI50 (NCI-H226 lung): 18.8 µM
TGI (NCI-H226 lung): 52.3 µM
GI50 (A498 renal): 19.5 µM
TGI (A498 renal): 49.6 µM
GI50 (HCC-2998 colon): 18.4 µM
TGI (HCC-2998 colon): 37.3 µM
GI50 (HT29 colon): 29.8 µM
TGI (HT29 colon): > 100 µM
GI50 (U251 glioblastoma): 18.1 µM
TGI (U251 glioblastoma): 41 µM
GI50 (SNB-75 CNS): 20.4 µM
TGI (SNB-75 CNS): 55.3 µM
GI50 (COLO 205 colon): 28.4 µM
TGI (COLO 205 colon): 62.8 µM
GI50 (SF-295 CNS): 19.2 µM
TGI (SF-295 CNS): 52.5 µM

CN[C@H]1CN(c2ccc3c(=O)c(C(=O)O)cn(-c4nccs4)c3n2)C[C@@H]1OC
GI50 (MDA-MB-231 breast): 1.41 µM
TGI (MDA-MB-231 breast): 11.4 µM
GI50 (MOLT-4 leukemia): 0.0305 µM
TGI (MOLT-4 leukemia): 0.12 µM
GI50 (NCI-H460 NSCLC): 0.206 µM
TGI (NCI-H460 NSCLC): 1.35 µM
GI50 (NCI-H522 lung): 1.21 µM
TGI (NCI-H522 lung): 5.61 µM
GI50 (HOP-92 NSCLC): 1.61 µM
TGI (HOP-92 NSCLC): 8.56 µM
GI50 (NCI-H23 lung): 0.551 µM
TGI (NCI-H23 lung): 2.57 µM
GI50 (M14 melanoma): 0.674 µM
TGI (M14 melanoma): 3.02 µM
GI50 (PC-3 prostate): 2.41 µM
TGI (PC-3 prostate): 15.4 µM
GI50 (CAKI-1 renal): 0.752 µM
TGI (CAKI-1 renal): 6.44 µM
GI50 (MDA-MB-435 melanoma): 3.5 µM
TGI (MDA-MB-435 melanoma): > 100 µM
GI50 (MCF7 breast): 0.602 µM
TGI (MCF7 breast): > 100 µM
GI50 (HOP-62 NSCLC): 0.479 µM
TGI (HOP-62 NSCLC): 2.2 µM
GI50 (A549 NSCLC): 0.686 µM
TGI (A549 NSCLC): > 100 µM
GI50 (NCI-H322M lung): 3.52 µM
TGI (NCI-H322M lung): 39.7 µM
GI50 ([…]-0 renal): 0.434 µM
TGI (786-0 renal): 4.59 µM
GI50 (IGROV1 ovarian): 1.8 µM
TGI (IGROV1 ovarian): > 100 µM
GI50 (SF-268 CNS): 0.421 µM
TGI (SF-268 CNS): 6.03 µM
GI50 (SNB-19 CNS): 0.559 µM
TGI (SNB-19 CNS): 2.93 µM
GI50 (ACHN renal): 0.458 µM
TGI (ACHN renal): 2.44 µM
GI50 (DU-145 prostate): 1.49 µM
TGI (DU-145 prostate): 7.07 µM
GI50 (OVCAR-8 ovarian): 0.637 µM
TGI (OVCAR-8 ovarian): > 100 µM
GI50 (LOX IMVI melanoma): 0.776 µM
TGI (LOX IMVI melanoma): 2.12 µM
GI50 (K-562 leukemia): 0.616 µM
TGI (K-562 leukemia): 6.05 µM
GI50 (RPMI-8226 leukemia): 0.0605 µM
TGI (RPMI-8226 leukemia): 1.18 µM
GI50 (HS 578T breast): 0.64 µM
TGI (HS 578T breast): 5.24 µM
GI50 (KM12 colon): 0.654 µM
TGI (KM12 colon): 10.7 µM
GI50 (OVCAR-4 ovarian): 4.36 µM
TGI (OVCAR-4 ovarian): > 100 µM
GI50 (SK-MEL-28 melanoma): 1.13 µM
TGI (SK-MEL-28 melanoma): 2.93 µM
GI50 (SK-OV-3 ovarian): 1.8 µM
TGI (SK-OV-3 ovarian): 26.3 µM
GI50 (UO-31 renal): 1.47 µM
TGI (UO-31 renal): 8.66 µM
GI50 (SW-620 colon): 0.823 µM
TGI (SW-620 colon): 7.71 µM
GI50 (MDA-MB-468 breast): 0.787 µM
TGI (MDA-MB-468 breast): 2.57 µM
GI50 (SN12C renal): 0.403 µM
TGI (SN12C renal): 2.77 µM
GI50 (TK-10 renal): 1.79 µM
TGI (TK-10 renal): 12.1 µM
GI50 (MALME-3M melanoma): 1.06 µM
TGI (MALME-3M melanoma): 2.7 µM
GI50 (BT-549 breast): 0.585 µM
TGI (BT-549 breast): 6.87 µM
GI50 (CCRF-CEM leukemia): 0.0586 µM
TGI (CCRF-CEM leukemia): 0.276 µM
GI50 (SF-539 CNS): 0.85 µM
TGI (SF-539 CNS): > 100 µM
GI50 (RXF 393 renal): 0.86 µM
TGI (RXF 393 renal): 5.37 µM
GI50 (HCT-116 colon): 0.371 µM
TGI (HCT-116 colon): 3.76 µM
GI50 (OVCAR-3 ovarian): 1.32 µM
TGI (OVCAR-3 ovarian): 6.19 µM
GI50 (HL-60(TB) leukemia): 0.0776 µM
TGI (HL-60(TB) leukemia): 0.238 µM
GI50 (NCI-H226 lung): 1.23 µM
TGI (NCI-H226 lung): 3.6 µM
GI50 (SK-MEL-5 melanoma): 1.15 µM
TGI (SK-MEL-5 melanoma): 2.54 µM
GI50 (A498 renal): 0.781 µM
TGI (A498 renal): 3.83 µM
GI50 (HT29 colon): 1.28 µM
TGI (HT29 colon): 3.88 µM
GI50 (U251 glioblastoma): 0.675 µM
TGI (U251 glioblastoma): 2.56 µM
GI50 (UACC-62 melanoma): 0.427 µM
TGI (UACC-62 melanoma): 1.89 µM
GI50 (SNB-75 CNS): 0.855 µM
TGI (SNB-75 CNS): 2.47 µM
GI50 (COLO 205 colon): 0.394 µM
TGI (COLO 205 colon): > 100 µM
GI50 (SR leukemia): 0.0189 µM
TGI (SR leukemia): 0.0443 µM
GI50 (SF-295 CNS): 0.426 µM
TGI (SF-295 CNS): 2.63 µM
